# Values joined by “and” are separate entries in the source; they are usually repeats but may differ in a detail not shown here. Equal entries are not always repeated. Inconclusive results and toxic doses are left out.
# Test system: L1210 leukemia ip in BDF1 mice, survival T/C
# Test: NCI In Vivo Anticancer Drug Screen. Data for tumor model L1210 Leukemia (intraperitoneal) in B6D2F1 (BDF1) mice
# Conditions: higher = longer survival
# In short: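 Read-out is survival time, reported as the treated-group measurement over the vehicle-control measurement.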
# [1] = endpoint: mean survival time, dose: 100.0 mg/kg/injection, schedule: Q04DX003 (ip), vehicle: Klucel (hydroxypropylcellulose) (HPC)
# [2] = endpoint: mean survival time, dose: 200.0 mg/kg/injection, schedule: Q04DX003 (ip), vehicle: Klucel (hydroxypropylcellulose) (HPC)
# [3] = endpoint: mean survival time, dose: 400.0 mg/kg/injection, schedule: Q04DX003 (ip), vehicle: Klucel (hydroxypropylcellulose) (HPC)
# [4] = endpoint: mean survival time, dose: 100.0 mg/kg/injection, schedule: Q01DX009 (ip), vehicle: Klucel (hydroxypropylcellulose) (HPC)
# [5] = endpoint: mean survival time, dose: 200.0 mg/kg/injection, schedule: Q01DX009 (ip), vehicle: Klucel (hydroxypropylcellulose) (HPC)
# [6] = endpoint: mean survival time, dose: 100.0 mg/kg/injection, schedule: Q04DX002 (ip), vehicle: Klucel (hydroxypropylcellulose) (HPC)
# [7] = endpoint: mean survival time, dose: 200.0 mg/kg/injection, schedule: Q04DX002 (ip), vehicle: Klucel (hydroxypropylcellulose) (HPC)
# [8] = endpoint: mean survival time, dose: 400.0 mg/kg/injection, schedule: Q04DX002 (ip), vehicle: Klucel (hydroxypropylcellulose) (HPC)
# [9] = endpoint: mean survival time, dose: 100.0 mg/kg/injection, schedule: Q01DX001 (ip), vehicle: carboxymethylcellulose (CMC)
# [10] = endpoint: mean survival time, dose: 200.0 mg/kg/injection, schedule: Q01DX001 (ip), vehicle: carboxymethylcellulose (CMC)
# [11] = endpoint: mean survival time, dose: 400.0 mg/kg/injection, schedule: Q01DX001 (ip), vehicle: carboxymethylcellulose (CMC)
# [12] = endpoint: mean survival time, dose: 50.0 mg/kg/injection, schedule: Q01DX009 (ip), vehicle: saline with Tween-80
# [13] = endpoint: mean survival time, dose: 50.0 mg/kg/injection, schedule: Q01DX001 (ip), vehicle: saline
# [14] = endpoint: mean survival time, dose: 100.0 mg/kg/injection, schedule: Q01DX001 (ip), vehicle: saline
# [15] = endpoint: mean survival time, dose: 200.0 mg/kg/injection, schedule: Q01DX001 (ip), vehicle: saline
# [16] = endpoint: mean survival time, dose: 400.0 mg/kg/injection, schedule: Q01DX001 (ip), vehicle: saline
# [17] = endpoint: mean survival time, dose: 100.0 mg/kg/injection, schedule: Q04DX003 (ip), vehicle: saline
# [18] = endpoint: mean survival time, dose: 200.0 mg/kg/injection, schedule: Q04DX003 (ip), vehicle: saline
# [19] = endpoint: mean survival time, dose: 100.0 mg/kg/injection, schedule: Q01DX009 (ip), vehicle: saline with Tween-80
# [20] = endpoint: mean survival time, dose: 100.0 mg/kg/injection, schedule: Q04DX003 (ip), vehicle: saline with Tween-80
# [21] = endpoint: mean survival time, dose: 200.0 mg/kg/injection, schedule: Q01DX009 (ip), vehicle: saline with Tween-80
# [22] = endpoint: mean survival time, dose: 200.0 mg/kg/injection, schedule: Q04DX003 (ip), vehicle: saline with Tween-80
# [23] = endpoint: mean survival time, dose: 400.0 mg/kg/injection, schedule: Q01DX009 (ip), vehicle: saline with Tween-80
compound,measurement,setting,value
CNC(=S)N/N=C/c1ccc2c(c1)CCC2,T/C,[1],100 % of control
same,T/C,[2],100 % of control
same,T/C,[3],91 % of control
COC1(c2ccccc2)CN(Cc2ccccc2)CCO1 (stereo not drawn),T/C,[4],95 % of control
same,T/C,[5],98 % of control
O=C(Nc1cccc(Cl)c1)Oc1ccc(Cl)cc1Cc1ccccc1,T/C,"endpoint: mean survival time, dose: 100.0 mg/kg/injection, schedule: Q01DX009 (ip), vehicle: carboxymethylcellulose (CMC)",95 % of control and 91 % of control
same,T/C,[6],121 % of control
same,T/C,"endpoint: mean survival time, dose: 100.0 mg/kg/injection, schedule: Q04DX002 (ip), vehicle: carboxymethylcellulose (CMC)",100 % of control
same,T/C,"endpoint: mean survival time, dose: 100.0 mg/kg/injection, schedule: Q04DX003 (ip), vehicle: carboxymethylcellulose (CMC)",94 % of control
same,T/C,"endpoint: mean survival time, dose: 200.0 mg/kg/injection, schedule: Q01DX009 (ip), vehicle: carboxymethylcellulose (CMC)",95 % of control and 97 % of control
same,T/C,[7],102 % of control
same,T/C,"endpoint: mean survival time, dose: 200.0 mg/kg/injection, schedule: Q04DX002 (ip), vehicle: carboxymethylcellulose (CMC)",97 % of control and 107 % of control
same,T/C,"endpoint: mean survival time, dose: 200.0 mg/kg/injection, schedule: Q04DX003 (ip), vehicle: carboxymethylcellulose (CMC)",97 % of control
same,T/C,"endpoint: mean survival time, dose: 400.0 mg/kg/injection, schedule: Q01DX009 (ip), vehicle: carboxymethylcellulose (CMC)",93 % of control and 97 % of control
same,T/C,[8],97 % of control
same,T/C,"endpoint: mean survival time, dose: 400.0 mg/kg/injection, schedule: Q04DX002 (ip), vehicle: carboxymethylcellulose (CMC)",98 % of control and 100 % of control
same,T/C,"endpoint: mean survival time, dose: 400.0 mg/kg/injection, schedule: Q04DX003 (ip), vehicle: carboxymethylcellulose (CMC)",94 % of control
CN(C(=O)N(CCCl)N=O)c1ccccc1,T/C,[9],104 % of control
same,T/C,[10],104 % of control
same,T/C,[11],105 % of control
CC1(C)CCC(C#N)=C1N,T/C,"endpoint: mean survival time, dose: 12.5 mg/kg/injection, schedule: Q01DX009 (ip), vehicle: saline with Tween-80",93 % of control
same,T/C,"endpoint: mean survival time, dose: 25.0 mg/kg/injection, schedule: Q01DX009 (ip), vehicle: saline with Tween-80",105 % of control
same,T/C,[12],88 % of control
Cc1cc(N)c(C(=O)O)cc1C,T/C,[13],104 % of control
same,T/C,[14],107 % of control
same,T/C,[15],104 % of control
same,T/C,[16],104 % of control
CN1C(C(=O)c2ccccc2)C1C(=O)c1ccccc1 (stereo not drawn),T/C,"endpoint: mean survival time, dose: 75.0 mg/kg/injection, schedule: Q04DX003 (ip), vehicle: carboxymethylcellulose (CMC)",112 % of control
same,T/C,"endpoint: mean survival time, dose: 150.0 mg/kg/injection, schedule: Q04DX003 (ip), vehicle: carboxymethylcellulose (CMC)",102 % of control
same,T/C,"endpoint: mean survival time, dose: 300.0 mg/kg/injection, schedule: Q04DX003 (ip), vehicle: carboxymethylcellulose (CMC)",102 % of control
Cn1c(=O)oc2ccccc2c1=S,T/C,[17],96 % of control
same,T/C,[18],100 % of control
same,T/C,"endpoint: mean survival time, dose: 400.0 mg/kg/injection, schedule: Q04DX003 (ip), vehicle: saline",100 % of control
O=c1c(N=Nc2ccc(Cl)cc2)c(O)n(-c2ccc(I)cc2)c(=S)n1-c1ccccc1,T/C,"endpoint: mean survival time, dose: 100.0 mg/kg/injection, schedule: Q01DX001 (ip), vehicle: Klucel (hydroxypropylcellulose) (HPC)",93 % of control
same,T/C,"endpoint: mean survival time, dose: 200.0 mg/kg/injection, schedule: Q01DX001 (ip), vehicle: Klucel (hydroxypropylcellulose) (HPC)",104 % of control
same,T/C,"endpoint: mean survival time, dose: 400.0 mg/kg/injection, schedule: Q01DX001 (ip), vehicle: Klucel (hydroxypropylcellulose) (HPC)",102 % of control
CC(=O)OCC1C2c3ccccc3C(c3ccccc32)C1CBr (stereo not drawn),T/C,[4],91 % of control
same,T/C,[1],93 % of control
same,T/C,[5],94 % of control
same,T/C,[2],94 % of control
same,T/C,"endpoint: mean survival time, dose: 400.0 mg/kg/injection, schedule: Q01DX009 (ip), vehicle: Klucel (hydroxypropylcellulose) (HPC)",88 % of control
same,T/C,[3],98 % of control
NC(c1ccccc1)C(N)c1ccccc1 (stereo not drawn),T/C,[12],104 % of control
same,T/C,[19],102 % of control and 92 % of control
same,T/C,"endpoint: mean survival time, dose: 100.0 mg/kg/injection, schedule: Q04DX003 (ip), vehicle: other",91 % of control
same,T/C,[20],98 % of control
same,T/C,[21],95 % of control and 110 % of control
same,T/C,[22],96 % of control
same,T/C,[23],98 % of control
OC(CCN1CCCC1)(c1ccccc1)C1CCCCC1 (stereo not drawn),T/C,"endpoint: mean survival time, dose: 6.25 mg/kg/injection, schedule: Q01DX009 (ip), vehicle: Klucel (hydroxypropylcellulose) (HPC)",104 % of control and 108 % of control
same,T/C,"endpoint: mean survival time, dose: 12.5 mg/kg/injection, schedule: Q01DX009 (ip), vehicle: Klucel (hydroxypropylcellulose) (HPC)",95 % of control and 97 % of control and 102 % of control
same,T/C,"endpoint: mean survival time, dose: 25.0 mg/kg/injection, schedule: Q01DX009 (ip), vehicle: Klucel (hydroxypropylcellulose) (HPC)",103 % of control and 105 % of control
same,T/C,"endpoint: mean survival time, dose: 25.0 mg/kg/injection, schedule: Q04DX003 (ip), vehicle: Klucel (hydroxypropylcellulose) (HPC)",111 % of control
same,T/C,"endpoint: mean survival time, dose: 50.0 mg/kg/injection, schedule: Q01DX009 (ip), vehicle: Klucel (hydroxypropylcellulose) (HPC)",100 % of control and 106 % of control (2×)
same,T/C,"endpoint: mean survival time, dose: 50.0 mg/kg/injection, schedule: Q04DX003 (ip), vehicle: Klucel (hydroxypropylcellulose) (HPC)",101 % of control
same,T/C,[4],103 % of control and 91 % of control
same,T/C,[1],92 % of control
same,T/C,"endpoint: median survival time, dose: 12.5 mg/kg/injection, schedule: Q01DX009 (ip), vehicle: Klucel (hydroxypropylcellulose) (HPC)",96 % of control
same,T/C,"endpoint: median survival time, dose: 25.0 mg/kg/injection, schedule: Q01DX009 (ip), vehicle: Klucel (hydroxypropylcellulose) (HPC)",106 % of control
same,T/C,"endpoint: median survival time, dose: 50.0 mg/kg/injection, schedule: Q01DX009 (ip), vehicle: Klucel (hydroxypropylcellulose) (HPC)",103 % of control
same,T/C,"endpoint: median survival time, dose: 100.0 mg/kg/injection, schedule: Q01DX009 (ip), vehicle: Klucel (hydroxypropylcellulose) (HPC)",102 % of control
O=NN(CCCl)C(=O)NC1CCC(CC2CCC(NC(=O)N(CCCl)N=O)CC2)CC1 (stereo not drawn),T/C,"endpoint: mean survival time, dose: 6.0 mg/kg/injection, schedule: Q01DX001 (ip), vehicle: gum acacia",105 % of control
same,T/C,"endpoint: mean survival time, dose: 12.0 mg/kg/injection, schedule: Q01DX001 (ip), vehicle: gum acacia",151 % of control
same,T/C,"endpoint: mean survival time, dose: 46.0 mg/kg/injection, schedule: Q01DX001 (ip), vehicle: gum acacia",184 % of control
same,T/C,"endpoint: mean survival time, dose: 93.0 mg/kg/injection, schedule: Q01DX001 (ip), vehicle: gum acacia",298 % of control
same,T/C,"endpoint: mean survival time, dose: 187.0 mg/kg/injection, schedule: Q01DX001 (ip), vehicle: gum acacia",315 % of control
same,T/C,"endpoint: mean survival time, dose: 250.0 mg/kg/injection, schedule: Q01DX001 (ip), vehicle: gum acacia",318 % of control
same,T/C,"endpoint: mean survival time, dose: 375.0 mg/kg/injection, schedule: Q01DX001 (ip), vehicle: gum acacia",245 % of control
CCOc1nc(=O)n(CC(=O)c2ccc(Cl)s2)cc1F,T/C,[19],105 % of control
same,T/C,[20],103 % of control
same,T/C,[21],90 % of control
same,T/C,[22],103 % of control
same,T/C,[23],86 % of control
same,T/C,"endpoint: mean survival time, dose: 400.0 mg/kg/injection, schedule: Q04DX003 (ip), vehicle: saline with Tween-80",94 % of control
C/C(=C\c1ccccc1)c1ccccc1,T/C,[13],91 % of control
same,T/C,[14],97 % of control
same,T/C,[15],95 % of control
same,T/C,[16],101 % of control
O=C(Nc1ccccc1)OCCOc1ccc(Cl)cc1,T/C,[6],88 % of control
same,T/C,[7],95 % of control
same,T/C,[8],95 % of control
CCN(CC)CCN(C)C(=O)C(c1ccccc1)c1ccccc1,T/C,[17],98 % of control
same,T/C,[18],93 % of control
Cc1ccc(S(=O)(=O)N2CC(O)C=Cc3ccccc32)cc1 (stereo not drawn),T/C,[9],107 % of control
same,T/C,[10],105 % of control
same,T/C,[11],110 % of control
O=C(Cc1c[nH]c2ccccc12)N=Nc1c(O)[nH]c2ccccc12,T/C,"endpoint: mean survival time, dose: 100.0 mg/kg/injection, schedule: Q01DX001 (ip), vehicle: other",102 % of control
same,T/C,"endpoint: mean survival time, dose: 200.0 mg/kg/injection, schedule: Q01DX001 (ip), vehicle: other",101 % of control
same,T/C,"endpoint: mean survival time, dose: 400.0 mg/kg/injection, schedule: Q01DX001 (ip), vehicle: other",93 % of control
O=C1CSc2cc[nH]c21,T/C,[4],95 % of control
same,T/C,[1],100 % of control
same,T/C,[2],95 % of control
same,T/C,[3],98 % of control
